Measured values: ChEMBL document CHEMBL1201862, “PubChem BioAssay data set” (2004)
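48-hour exposure; five concentrations; linearly interpolated endpoints. Here, GI50 denotes the concentration required for 50% inhibition of growth.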 The source made the active and inactive calls. Rule as the data show it: active = GI50 up to about 1.1 µM and inactive = higher.

How the values were obtained:
Test in all cases: inhibition of tumour cell growth, NCI panel, 48 h
K562 = test system: K562
OVCAR-3 = test system: OVCAR-3
NCI-H522 = test system: NCI-H522
HOP-62 = test system: HOP-62
LOX IMVI = test system: LOX IMVI
UACC-62 = test system: UACC-62
OVCAR-5 = test system: OVCAR-5
OVCAR-8 = test system: OVCAR-8
HL-60 = test system: HL-60
RPMI-8226 = test system: RPMI-8226
CAKI-1 = test system: CAKI-1
M19-MEL = test system: M19-MEL
M14 = test system: M14
SNB-78 = test system: SNB-78
DMS-114 = test system: DMS-114
UO-31 = test system: UO-31
KM12 = test system: KM12
NCI-H23 = test system: NCI-H23
DMS-273 = test system: DMS-273
Malme-3M = test system: Malme-3M
SW-620 = test system: SW-620
786-0 = test system: 786-0
HCC 2998 = test system: HCC 2998
MOLT-4 = test system: MOLT-4
TK-10 = test system: TK-10
SK-MEL-28 = test system: SK-MEL-28
COLO 205 = test system: COLO 205
NCI-H226 = test system: NCI-H226
OVCAR-4 = test system: OVCAR-4
NCI-H460 = test system: NCI-H460
UACC-257 = test system: UACC-257
HCT-116 = test system: HCT-116
SF-295 = test system: SF-295
SF-268 = test system: SF-268
HCT-15 = test system: HCT-15
SNB-19 = test system: SNB-19
A549 = test system: A549
IGROV-1 = test system: IGROV-1
LXFL 529 = test system: LXFL 529
HT-29 = test system: HT-29
U-251 = test system: U-251
SNB-75 = test system: SNB-75
DLD-1 = test system: DLD-1
KM-20L2 = test system: KM-20L2
SF-539 = test system: SF-539
ACHN = test system: ACHN
SR = test system: SR
RXF 393 = test system: RXF 393
XF498 = test system: XF498
HOP-92 = test system: HOP-92
SK-MEL-5 = test system: SK-MEL-5
SN12C = test system: SN12C
SK-OV-3 = test system: SK-OV-3
CCRF-CEM = test system: CCRF-CEM

Measured: GI50

COc1ccc(-c2oc(/C=N/c3ccccc3)c([N+](=O)[O-])c2-c2ccc(OC)c(OC)c2)cc1OC
inactive: K562 > 100 µM | OVCAR-3 > 100 µM | NCI-H522 > 100 µM | HOP-62 > 100 µM | LOX IMVI > 100 µM | UACC-62 > 100 µM | OVCAR-5 > 100 µM | OVCAR-8 > 100 µM | HL-60 > 100 µM | RPMI-8226 > 100 µM | CAKI-1 > 100 µM | M19-MEL > 100 µM | M14 > 100 µM | SNB-78 > 100 µM | DMS-114 > 100 µM | UO-31 > 100 µM | KM12 > 100 µM | NCI-H23 > 100 µM | DMS-273 > 100 µM | Malme-3M > 100 µM | SW-620 > 100 µM | 786-0 > 100 µM | HCC 2998 > 100 µM | MOLT-4 > 100 µM | TK-10 > 100 µM | SK-MEL-28 > 100 µM | COLO 205 > 100 µM | NCI-H226 > 100 µM | OVCAR-4 > 100 µM | NCI-H460 > 100 µM | UACC-257 > 100 µM | HCT-116 > 100 µM | SF-295 > 100 µM | SF-268 > 100 µM | SNB-19 > 100 µM | A549 > 100 µM | IGROV-1 > 100 µM | LXFL 529 > 100 µM | HT-29 > 100 µM | U-251 > 100 µM | SNB-75 > 100 µM | DLD-1 > 100 µM | KM-20L2 > 100 µM | SF-539 > 100 µM | ACHN > 100 µM | SR > 100 µM | RXF 393 > 100 µM | XF498 > 100 µM | HOP-92 65.6 µM | SK-MEL-5 > 100 µM | SN12C > 100 µM | SK-OV-3 > 100 µM
> 100 µM: HCT-15

Cn1nc2ccc3nccc(NCCNCCO)c3c2n1
inactive: K562 73.5 µM | OVCAR-3 38.3 µM | NCI-H522 37.5 µM | HOP-62 47.4 µM | LOX IMVI 20.4 µM | UACC-62 33.3 µM | OVCAR-5 25 µM | OVCAR-8 36.4 µM | HL-60 > 100 µM | RPMI-8226 26.9 µM | CAKI-1 63 µM | M19-MEL 40.4 µM | M14 32.5 µM | SNB-78 36.2 µM | UO-31 25.8 µM | KM12 35 µM | CCRF-CEM > 100 µM | NCI-H23 39.4 µM | Malme-3M 36.8 µM | SW-620 29.4 µM | 786-0 38.5 µM | HCC 2998 40.6 µM | MOLT-4 5.56 µM | TK-10 45.8 µM | SK-MEL-28 39.4 µM | COLO 205 17.5 µM | NCI-H226 41.2 µM | OVCAR-4 40.9 µM | NCI-H460 18.1 µM | UACC-257 27.3 µM | HCT-116 18.2 µM | SF-295 39.3 µM | SF-268 27.4 µM | SNB-19 73.5 µM | A549 40.2 µM | IGROV-1 68.4 µM | LXFL 529 39.2 µM | HT-29 20.5 µM | U-251 37 µM | SNB-75 45.2 µM | DLD-1 33.2 µM | KM-20L2 25.8 µM | SF-539 33.6 µM | ACHN 34.3 µM | SR 10 µM | RXF 393 23.7 µM | XF498 35 µM | HOP-92 36.3 µM | SK-MEL-5 56.5 µM | SN12C 32.8 µM | SK-OV-3 34.1 µM
44.3 µM: HCT-15
